US20260139017A1, “COMPOSITIONS AND METHODS USING REELIN IN ALZHEIMER'S DISEASE” (The General Hospital Corporation, priority 2022, published 2026)

Key:
[1] = Bio-layer interferometry (BLI) of Fc-fusion CTR-RELN on heparin coated biosensor; assay type: binding; conditions: Fc-fusion (short, furin-cleaved) CTR
Method: We used Fc-fusion Reelin CTR peptides since peptides alone would be smaller than the limit of detection in this experimental design. To assess heparin—Fc-Reelin interaction, the octet system (bio-layer interferometry) was used to assess heparin-protein kinetics. 50 μg/mL biotinylated heparin was immobilized on the biosensor tip surface for 300 sec on preconditioned biosensors. This was followed by quenching with biocytin at 50 μg/ml, baseline buffer diluent for 120 sec, 200 nM of analyte (Fc-fusion proteins) for 120 sec, and disassociation in assay buffer for 120 sec.
(§1) The experimental data were fit with the 1:1 binding model and analyzed with global fitting using Octet Data Analysis software to calculate KD.

NRP1 = target: T1, NRP1 (Homo sapiens, UniProt O14786); test: Bio-layer interferometry (BLI) of CTR-RELN-NRP-1 interactions; assay type: binding; conditions: Fc-fusion peptides
T1 construct: purchased R&D 3870-N1-025
T1 sequence (O14786 22-644 isoform O14786-2 limits assumed): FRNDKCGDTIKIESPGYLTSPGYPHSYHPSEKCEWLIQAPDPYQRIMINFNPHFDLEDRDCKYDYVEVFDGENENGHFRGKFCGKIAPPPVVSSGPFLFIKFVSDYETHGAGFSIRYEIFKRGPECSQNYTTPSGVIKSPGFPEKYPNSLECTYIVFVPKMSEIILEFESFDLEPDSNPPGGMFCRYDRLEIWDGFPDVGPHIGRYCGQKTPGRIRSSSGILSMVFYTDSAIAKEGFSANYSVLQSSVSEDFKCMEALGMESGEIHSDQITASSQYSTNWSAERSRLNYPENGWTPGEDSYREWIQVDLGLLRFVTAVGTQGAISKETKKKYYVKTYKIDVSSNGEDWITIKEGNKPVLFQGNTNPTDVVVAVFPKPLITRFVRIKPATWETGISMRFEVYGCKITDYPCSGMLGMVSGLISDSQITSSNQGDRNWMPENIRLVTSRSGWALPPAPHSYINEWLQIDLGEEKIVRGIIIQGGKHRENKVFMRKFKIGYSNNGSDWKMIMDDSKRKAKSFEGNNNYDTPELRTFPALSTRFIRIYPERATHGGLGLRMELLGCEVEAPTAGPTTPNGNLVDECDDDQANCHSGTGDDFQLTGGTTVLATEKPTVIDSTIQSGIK
Method: (§2) Bio-layer interferometry (BLI) was additionally used to assess NRP1-protein kinetics at 30° C. and 1000 rpm agitation. 1 mg/mL NRP1 (R&D 3870-N1-025) was biotinylated at a 1:2 molar ratio, desalted, and immobilized on the SA biosensor tip (Pall ForteBio) surface. This was followed by 1) 180 seconds baseline buffer diluent, 2) loading of the ligand (NRP1), 3) 180 seconds baseline buffer diluent, 4) 240 seconds association (analyte), and 5) 300 seconds disassociation in assay buffer. Assay buffer: SD Buffer (pH7.4 PBS, 0.05% tween20, 0.01% BSA).
as §1
as §2, with “was” for “was additionally”, “agitation using previously published methods.” for “agitation.”

[2] = Surface plasmon resonance (SPR) binding of CTR-RELN peptides to heparin-coated chip
Method: Surface plasmon resonance assay (SPR) was used for performing binding kinetics using a Biacore 3000 Instrument (GE Healthcare) at 25° C. following previously published protocols (7 24) as fee-for-service by Precision Antibody (Maryland, USA). Biotin-labeled heparin (B9806, Sigma Aldrich) was covalently linked to streptavidin-coated chip and unoccupied sites were blocked with biocytin. Antigen was flowed over the chip using a range of single analyte concentrations prepared in DPBS buffer and using a flow rate of 30 μL/min. Binding of antigen to the ligand was monitored in real time to obtain on (ka) and off (kd) rates. The equilibrium constant (KD) was calculated from the observed ka and kd. Accuracy of the SPR analysis was determined via Chi square (χ2) analysis as described in the statistical analysis section. We included in the analyses the WT and H3447R peptides and peptides with the hypothetical H3447D change ([…])(SEQ ID NO:57) and the H3447K change ([…])(SEQ ID NO:58), also produced and purified by Innovagen (Sweden).
Surface plasmon resonance assay (SPR) was used for performing binding kinetics using a Biacore 3000 Instrument (GE Healthcare) at 25° C. following previously published protocols 34 24 fee-for-service by Precision Antibody (Maryland, USA). Heparin was covalently linked to streptavidin coated chip at 13 response units (RU) concentration and unoccupied sites were blocked with biocytin. Antigen was flowed over the chip using a range of single analyte concentrations prepared in DPBS buffer and using a flow rate of 30 μL/min. Binding of antigen to the ligand was monitored in real time to obtain on (ka) and off (kd) rates. The equilibrium constant (KD) was calculated from the observed ka and kd. Accuracy of the SPR analysis was determined via Chi square (2) analysis as described in the statistical analysis section.

RKQNYMMNFSRQHGLRRFYNRRRRSLRRYP [CTR-RELN H3447R]
interaction/affinity with heparin relative to WT ([1]; listed as H3447R): ~2 fold
interaction/affinity with heparin relative to WT ([1]; listed as RELN H3447R): about 2 fold
affinity for NRP1 relative to WT (NRP1): 10 fold
heparin affinity/interaction relative to WT, in words ([2]; SPR kinetic constants): about twice
interaction/affinity with heparin relative to WT ([2]; SPR, kinetic data, vs RELN WT peptide): ~2 fold
